Test results reported in patent US7455654B2, “Method and apparatus for reducing the incidence of tobacco use” (Alza Corporation, priority 2003, dated 2008).
Read-outs that look alike come from different tables or passages of the source.

Experiments:
[1] = 0.2 wt. % Tween 20
Method: A 30 wt. % nicotine HCl solution is prepared in water. To that solution is added 0.1 wt. % hydroxyethyl cellulose and 0.2 wt. % of the surfactant Tween 20. The coating solution is then applied to the microprojections using the coating methods described in U.S. Publication No. 2002/0132054.
(§1) An aqueous solution consisting of 5 wt. % nicotine base, 5 wt. % hydroxypropyl methylcellulose (HPMC, Methocel E5 premium LV EP JP, Dow Chemical Company, Midland Mich.) and 0.2 wt. % Tween 20 is prepared. The coating solution is then applied to the microprojections using the coating methods described in U.S. Publication No. 2002/0132054.

[2] = 2 cm^2 device coated with ca. 300 micrograms nicotine HCl, applied in humans with applicator
[3] = 2 cm^2 device coated with ca. 400 micrograms nicotine base; essentially immediate delivery on application to the skin
Method: as §1

[4] = Method: An aqueous solution containing 40 wt. % nicotine hydrogen tartrate was prepared. Sufficient fluorescein was added to the solution to generate a 0.001 M concentration. This agent was used to assess the quality of the coating after drying.
A strip of titanium foil was prepared by washing the surface with acetone and drying. Five microliters of the coating solution (or formulation) was applied and dried for four hours at room temperature.

CN1CCCC1c1cccnc1.Cl (stereo not drawn) [nicotine HCl]
coating distribution across the projections ([1]; 30 wt. % nicotine HCl in water, 0.1 wt. % hydroxyethyl cellulose): well distributed across the projections
delivery of the nicotine contained on the projections [2]: more than 70%

CN1CCC[C@H]1c1cccnc1 [nicotine base]
coating distribution across the projections ([1]; aqueous 5 wt. % nicotine base, 5 wt. % HPMC): well distributed across the projections
amount of nicotine base delivered to the user [3]: 300 micrograms

CN1CCCC1c1cccnc1.O=C(O)C(O)C(O)C(=O)O (stereo not drawn) [nicotine hydrogen tartrate]
quality of the coating ([4]; aqueous 40 wt. % nicotine hydrogen tartrate with 0.001 M fluorescein, 5 microliters on titanium foil, dried four hours at room temperature, no wetting agent): very poor
quality of the coating ([4]; same coating solution with 0.1 wt. % hydroxyethyl cellulose added): noticeably improved
